Laboratory results taken from patent publication US9676758B2, “1-heteroaryl-indoline-4-carboxamides as modulators of GPR52 useful for the treatment or prevention of disorders related thereto” (Arena Pharmaceuticals, Inc., priority 2015, dated 2017).

Columns and labels:
[1] = test system: male Sprague-Dawley rats; assay: Prepulse inhibition of the startle response in rats; type: in vivo, rat; details: 5 or 20 mg/kg P.O., FIGS. 26A-B
Description: Prepulse inhibition testing was conducted in enclosed startle chambers (Kinder Scientific StartleMonitor System, Kinder Scientific, Poway, Calif.) in which animals were placed into restrainers secured onto startle-sensing plates. A constant background white noise of 65 dB was audible in the chambers throughout testing. […]
For each animal, mean startle amplitude for each trial type during the 35-trial block was calculated, and percent prepulse inhibition (% PPI) for each prepulse intensity was calculated as the percent decrease in the mean startle amplitude in response to a given prepulse and 120 dB startle stimulus relative to the mean startle amplitude in response to the 120 dB startle stimulus alone. The % PPI was then calculated for each animal as the mean % PPI across all four prepulse intensities. […]

[2] = test system: male Sprague-Dawley rats; assay: Amphetamine-stimulated locomotor activity in rats; type: in vivo, rat; details: 0.5, 1, 2, 5, 10, and 20 mg/kg P.O., amphetamine 0.5 mg/kg SC, FIG. 24
Description: Fifteen minutes later, rats were injected with amphetamine (0.5 mg/kg SC in volume of 1 mL/kg). Activity was then measured for 90 minutes.

[3] = Brain penetration (plasma and brain exposure); type: in vivo, mouse; details: PO dose 3 mg/kg; male C57BL6 mice; 60 minute time point
Description: Plasma and brain exposure were evaluated to determine the brain penetration of compounds described herein. Male C57BL6 mice were administered a single per oral (PO) dose of compound at 3 or 10 mg/kg (as a free base) formulated in 20% HPCD in 0.9% NaCl. Blood and brain samples were collected 60 minutes post-dose (n=3-6 animals). Blood was collected via cardiac puncture and stored on ice prior to the separation of plasma by centrifugation. Brains were extracted from the cranium and frozen on dry ice. Tissue samples were stored at approximately −80° C. prior to bioanalytical analysis.
Analyte plasma and brain concentrations were determined by LC/MS/MS.

[4] = test system: male Sprague-Dawley rats; assay: Rat basal locomotor activity; details: 0.5, 1, 2, 5, 10, and 20 mg/kg P.O.
Description: Locomotor activity was assessed in a photocell monitoring caging system (Kinder Scientific MotorMonitor System, Kinder Scientific, Poway, Calif.). Each cage consisted of a standard plastic rodent cage (24×45.5 cm) placed inside a stainless steel frame. Infrared photocell beams were located across the long axis of the frame. Interruption of a photocell beam due to movement of the animal in front of a beam was recorded and used as a measure of ambulatory activity. Photocell beam interruptions were automatically recorded by a computer system. Perforated cage tops were placed on top of the test enclosures during testing.
Activity was then measured for the following 30 minutes. Animals were naïve to the testing apparatus prior to performing the test. Activity is expressed as the total number of ambulations over the 30 minutes of locomotor testing (i.e., 30-60 minutes post-injection).

[5] = test system: male Sprague-Dawley rats; assay: Catalepsy (vertical grid) in rats; type: in vivo, rat; details: Compound 13 5-100 mg/kg P.O., haloperidol 0.1, 0.3, or 1 mg/kg S.C., 45 minutes post-dose
Description: Catalepsy is used as a model for detecting extrapyramidal side effects of antipsychotic drugs. […] The rats were removed from home cages 45 minutes later and placed on a vertical stainless steel grid, and the latency to move both forepaws from their starting position was measured for a maximum of 30 seconds. The test was repeated three times consecutively.
Catalepsy is expressed as the average latency to move both forepaws over the three trials. Latency increased in the rats administered haloperidol (see FIG. 27B), but was unchanged in rats administered Compound 13 (see FIG. 27A).

**Q.** Which “MK-801-induced disruption in % PPI in 'good performers'” value ([1]; MK-801 0.3 mg/kg SC) does the source give for O=C(NCCO)c1cccc2c1CCN2c1cc(Cc2cccc(C(F)(F)F)c2)ccn1 [Compound 13, N-(2-Hydroxyethyl)-1-(4-(3-(trifluoromethyl)benzyl)pyridin-2-yl)indoline-4-carboxamide] here?
**A.** Its value is “reversed”.

**Q.** What about the “amphetamine-induced disruption in % PPI in 'good performers'” value ([1]; amphetamine 0.5 mg/kg SC) of the same compound?
**A.** Its value is “reversed”.

**Q.** What about the amphetamine-stimulated locomotion [2] of the same compound?
**A.** The amphetamine-stimulated locomotion was “blocked amphetamine-stimulated locomotion at several doses”.

**Q.** And the “Brain/Plasma Ratio” value [3]?
**A.** Its value is 3.51.

**Q.** What about the basal locomotor activity [4] of the same compound?
**A.** The basal locomotor activity was “significant reduction in basal locomotor activity was only seen at the highest dose”.

**Q.** What about the “catalepsy: average latency to move both forepaws” value [5] of the same compound?
**A.** The value was “unchanged”.
